For 3 compounds, LD50 results are on record in patent publication US4461906A, “Pyrrolidine 2-one derivatives” (Hoffmann-La Roche Inc., priority 1979, dated 1984).

For orientation: LD50 means the dose expected to kill half of the subjects tested. Lower therefore signals a more toxic substance.

The data set is described as follows: Acute toxicity, single oral administration to mice. Particulars: mouse, in vivo, p.o.

`COc1ccc(C(=O)N2CCCC2=O)cc1O` [B, 1-(3-Hydroxy-4-methoxybenzoyl)-2-pyrrolidinone] displayed an LD50 of 1250 to 2500 mg/kg.

The compound `COc1ccc(C(=O)N2CCC(O)C2=O)cc1` (racemic) [A] gave an LD50 of over 5000 mg/kg.

The compound `COc1ccc(C(=O)N2CC(O)CC2=O)cc1` (racemic) [C, (R,S)-1-(p-Methoxybenzoyl)-4-hydroxy-2-pyrrolidinone] showed an LD50 of 2000 to 4000 mg/kg.
